# Source: article PMC6010526, “In Silico Approaches Applied to the Study of Peptide Analogs of Ile-Pro-Ile in Relation to Their Dipeptidyl Peptidase IV Inhibitory Properties” (Frontiers in Endocrinology, 2018)
# Like-named read-outs stand apart in the source and are kept apart here. Residues, ends and D or L forms follow the SMILES beside them.
# Key:
# porcine DPP-IV [1] = molecular target: T1, porcine DPP-IV (Sus scrofa, UniProt P22411); assay: DPP-IV inhibition assay with Gly-Pro-pNA substrate; type: biochemical; set-up: purchased Sigma Aldrich (Dublin, Ireland); details: for IC50: porcine DPP-IV, Gly-Pro-pNA 0.200 mM, 37°C, n = 3, read-out: Experimental DPP-IV IC50
# Experimental: Peptides were dispersed in HPLC grade water at 50 and 500 µM (final concentration). The DPP-IV inhibition assay was carried out in triplicate as outlined by Nongonierma and FitzGerald ([18]). Briefly, samples (25 μL) were mixed with Gly-Pro-pNA (final concentration 0.200 mM) and DPP-IV (final concentration 0.0025 U mL^−1) in a 96-well microplate (Sarstedt, Dublin, Ireland). The microplate was incubated at 37°C for 60 min in a microplate reader (Biotek Synergy HT, Winooski, VT, USA) and absorbance was monitored at 405 nm.
# Dose–response curves were determined for peptides displaying a percentage of inhibition > 50% at 500 µM. Peptides were diluted in HPLC water at concentrations ranging from 0.37 to 500 µM (final concentration). The DPP-IV IC50 values were determined by plotting the percentage inhibition as a function of the test compound concentration. Each analysis was carried out in triplicate (n = 3).
# porcine DPP-IV [2] = molecular target: T1, porcine DPP-IV; assay: Stability of peptides to hydrolysis by DPP-IV (LC-MS/MS); details: for Hydrolysis by DPP-IV (stability), in words: 30 min incubation with DPP-IV; for Peptide hydrolyzed by DPP-IV: peptide at 1/4 of IC50, 30 min at 37°C, Tris-HCl buffer pH 8.0
# Experimental: Stability of the peptides to hydrolysis by DPP-IV was evaluated by liquid chromatography tandem mass spectrometry (LC-MS/MS) using the samples generated during the Lineweaver and Burk analysis containing DPP-IV inhibitory peptides at their IC50 values divided by 4 as previously described ([24]). Following the 30 min reaction, DPP-IV was heat inactivated by immersing samples in a water bath set at 90°C for 20 min. Test samples were subsequently diluted 40 times in mobile phase A (0.1% FA in MS water). Intact peptides were analyzed at the same concentration as the test samples. The peptide composition of the samples was determined as described previously ([25]). Briefly, an ultra-high performance liquid chromatography (UHPLC) UltiMate 3000 (Dionex, Camberley, Surrey, UK) fitted with a security guard UHPLC C18 PEPTIDE (2.1 mm, Phenomenex, Cheshire, UK) and an Aeris Peptide XB-C18 column (150 mm × 2.1 mm, 1.7 µm, Phenomenex) was used for peptide separation at 25°C. A sample volume of 2 µL was injected with a solvent delay of 4 min. The UHPLC was coupled to a quadrupole time-of-flight mass spectrometer (Q-TOF, Impact HD™, Bruker Daltonics GmbH, Bremen, Germany) using a 50–600 m/z acquisition range. The MS was fitted with an electrospray ionization source used in positive ion mode. Data acquisition was performed with Hystar software (Bruker Daltonics). Data analysis was performed with Compass Data Analysis 4.2 (Bruker Daltonics).
# DPP-IV [3] = system: DPP-IV; set-up: method as in PMID 1671823; details: after 36 min incubation; ref [47]; cited from earlier work
# DPP-IV [4] = details: competitive inhibitory peptides used in QSAR model, cited from earlier work
# [5] = cited from earlier work
# [6] = molecular target: human dipeptidyl peptidase IV; set-up: method as in PMID 24512990; details: most potent peptide of Trp-Arg-Xaa library; ref [14]; read-out: DPP-IV IC50; cited from earlier work
# DPP-IV [7] = details: cited from earlier work
# T1 sequence (P22411 whole entry): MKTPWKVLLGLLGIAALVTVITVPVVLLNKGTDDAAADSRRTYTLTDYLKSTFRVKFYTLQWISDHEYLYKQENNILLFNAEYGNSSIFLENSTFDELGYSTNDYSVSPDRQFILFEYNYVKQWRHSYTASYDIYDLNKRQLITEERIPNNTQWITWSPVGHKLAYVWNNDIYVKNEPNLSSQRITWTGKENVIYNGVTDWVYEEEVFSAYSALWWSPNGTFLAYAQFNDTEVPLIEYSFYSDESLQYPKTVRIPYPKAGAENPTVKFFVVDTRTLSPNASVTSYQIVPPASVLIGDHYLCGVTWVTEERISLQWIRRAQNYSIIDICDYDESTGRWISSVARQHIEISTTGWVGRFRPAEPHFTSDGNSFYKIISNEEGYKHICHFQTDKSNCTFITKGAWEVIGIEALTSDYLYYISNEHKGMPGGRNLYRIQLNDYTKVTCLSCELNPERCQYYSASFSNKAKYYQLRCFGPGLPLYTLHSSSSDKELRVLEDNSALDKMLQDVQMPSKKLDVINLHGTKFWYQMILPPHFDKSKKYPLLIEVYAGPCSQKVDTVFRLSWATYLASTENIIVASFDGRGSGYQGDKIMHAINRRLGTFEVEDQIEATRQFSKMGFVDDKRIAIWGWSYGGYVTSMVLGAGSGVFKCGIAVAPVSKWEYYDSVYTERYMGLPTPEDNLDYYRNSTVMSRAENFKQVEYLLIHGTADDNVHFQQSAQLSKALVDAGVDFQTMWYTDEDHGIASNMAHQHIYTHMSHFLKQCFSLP
Compound,inhibition at 500 µM (porcine DPP-IV [1]; peptide at 500 µM),IC50 (porcine DPP-IV [1]),"Hydrolysis by DPP-IV (stability), in words (porcine DPP-IV [2])",Peptide hydrolyzed by DPP-IV (porcine DPP-IV [2]),further results
Glu-Lys [EK],,,,,IC50 (DPP-IV [4]; ref [18]): 3220 µM
IPIQY,,,,,IC50 (DPP-IV [4]; ref [21]): 35.2 µM
Ile-Pro-Pro,,,,,"Identification in human sera ([5]; following ingestion of a milk beverage enriched in lactotripeptides, ref [39]): identified in human sera"
LLQLEAIR,,,,,IC50 (DPP-IV [4]; ref [24]): 178 µM
LPLPL,,,,,IC50 (DPP-IV [4]; ref [21]): 325 µM
LPQNIPPLT,,,,,IC50 (DPP-IV [4]; ref [17]): 205 µM
LPVP,,,,,IC50 (DPP-IV [4]; ref [24]): 87 µM
LPVPQ,,,,,IC50 (DPP-IV [4]; ref [17]): 43.7 µM
LPYPY,,,,,IC50 (DPP-IV [4]; ref [21]): 108 µM
MPVQA,,,,,IC50 (DPP-IV [4]; ref [24]): 93.3 µM
Trp-Arg-Glu,,,,,IC50 [6]: 350 µM
VPGEIVE,,,,,IC50 (DPP-IV [4]; ref [17]): 224 µM
Val-Pro-Leu [VPL],,,,,"times more potent than other food protein-derived peptides (DPP-IV [7]; DPP-IV inhibition, ref [5]): > 2 times; Mode of inhibition (DPP-IV [7]; Table S1, ref (2,3) of supplement): competitive; IC50 (DPP-IV [7]; ref [8]): 15.8 µM"
Val-Pro-Pro,,,,,Identification in human sera ([5]; in vivo): identified in human sera

# Second part, led by results:
inhibition at 500 µM (porcine DPP-IV [1]; peptide at 500 µM),IC50 (porcine DPP-IV [1]),"Hydrolysis by DPP-IV (stability), in words (porcine DPP-IV [2])",Peptide hydrolyzed by DPP-IV (porcine DPP-IV [2]),Compound,further results
> 65%,44.3 ± 3.2 µM,not hydrolyzed by DPP-IV,NO,"C[C@H](N)C(=O)N1CCC[C@H]1C(=O)N[C@@H](C)C(=O)O [APA, Ala-Pro-Ala] (H-Ala-Pro-Ala-OH; N-terminus and C-terminus assumed)",
> 65%,65.8 ± 5.5 µM,not hydrolyzed by DPP-IV,NO,"C[C@H](N)C(=O)N1CCC[C@H]1C(=O)N[C@@H](Cc1ccccc1)C(=O)O [APF, Ala-Pro-Phe] (H-Ala-Pro-Phe-OH; N-terminus and C-terminus assumed)",
> 65%,120 ± 3.5 µM,not hydrolyzed by DPP-IV,NO,"C[C@H](N)C(=O)N1CCC[C@H]1C(=O)N[C@@H](CCCNC(=N)N)C(=O)O [APR, Ala-Pro-Arg] (H-Ala-Pro-Arg-OH; N-terminus and C-terminus assumed)",
62.9 ± 10.1%,247 ± 32.7 µM,partly hydrolyzed by DPP-IV,YES,"N[C@@H](Cc1ccccc1)C(=O)N1CCC[C@H]1C(=O)N[C@@H](Cc1ccccc1)C(=O)O [FPF, Phe-Pro-Phe] (H-Phe-Pro-Phe-OH; N-terminus and C-terminus assumed)",
,54.9 ± 2.9 µM,partly hydrolyzed by DPP-IV,YES,"N[C@@H](Cc1ccccc1)C(=O)N1CCC[C@H]1C(=O)N[C@@H](Cc1c[nH]c2ccccc12)C(=O)O [FPW, Phe-Pro-Trp] (H-Phe-Pro-Trp-OH; N-terminus and C-terminus assumed)",
9.6 ± 1.9%,,,,"CC[C@H](C)[C@H](N)C(=O)N[C@@H](C)C(=O)N[C@H](C(=O)O)[C@@H](C)CC [IAI, Ile-Ala-Ile] (H-Ile-Ala-Ile-OH; N-terminus and C-terminus assumed)","% DPP-IV inhibition (porcine DPP-IV [1]; peptide at 500 µM, 500 µM): < 10%"
> 65%,28.3 ± 3.4 µM,not hydrolyzed by DPP-IV,NO,"CC[C@H](C)[C@H](N)C(=O)N1CCC[C@H]1C(=O)N[C@@H](C)C(=O)O [IPA, Ile-Pro-Ala] (H-Ile-Pro-Ala-OH; N-terminus and C-terminus assumed)",
,47.3 ± 12.3 µM,partly hydrolyzed by DPP-IV,YES,"CC[C@H](C)[C@H](N)C(=O)N1CCC[C@H]1C(=O)N[C@@H](Cc1ccccc1)C(=O)O [IPF, Ile-Pro-Phe] (H-Ile-Pro-Phe-OH; N-terminus and C-terminus assumed)",
> 65%,,,,"CC[C@H](C)[C@H](N)C(=O)N1CCC[C@H]1C(=O)N[C@H](C(=O)O)[C@@H](C)CC [IPI, Ile-Pro-Ile]",initial amount cleaved by DPP-IV (DPP-IV [3]): 37%
,175 ± 5.5 µM,partly hydrolyzed by DPP-IV,YES,"CC[C@H](C)[C@H](N)C(=O)N1CCC[C@H]1C(=O)N[C@@H](Cc1c[nH]c2ccccc12)C(=O)O [IPW, Ile-Pro-Trp] (H-Ile-Pro-Trp-OH; N-terminus and C-terminus assumed)",
< 25%,,,,"CC[C@H](C)[C@H](N)C(=O)N[C@@H](CCCNC(=N)N)C(=O)N[C@@H](Cc1ccccc1)C(=O)O [IRF, Ile-Arg-Phe] (H-Ile-Arg-Phe-OH; N-terminus and C-terminus assumed)",
< 25%,,,,"CC[C@H](C)[C@H](N)C(=O)N[C@@H](CCCNC(=N)N)C(=O)N[C@@H](CCCCN)C(=O)O [IRK, Ile-Arg-Lys] (H-Ile-Arg-Lys-OH; N-terminus and C-terminus assumed)",
> 65%,74.5 ± 7 µM,not hydrolyzed by DPP-IV,NO,"C[C@H](NC(=O)[C@@H]1CCCN1C(=O)[C@@H](N)CCCCN)C(=O)O [KPA, Lys-Pro-Ala] (H-Lys-Pro-Ala-OH; N-terminus and C-terminus assumed)",
< 25%,,,,"N=C(N)NCCC[C@H](NC(=O)[C@H](CCCCN)NC(=O)[C@@H](N)CCCNC(=N)N)C(=O)O [RKR, Arg-Lys-Arg] (H-Arg-Lys-Arg-OH; N-terminus and C-terminus assumed)",
,160 ± 12.8 µM,partly hydrolyzed by DPP-IV,YES,"N[C@@H](Cc1c[nH]c2ccccc12)C(=O)N1CCC[C@H]1C(=O)N[C@@H](Cc1ccccc1)C(=O)O [WPF, Trp-Pro-Phe] (H-Trp-Pro-Phe-OH; N-terminus and C-terminus assumed)",
,120 ± 13.1 µM,partly hydrolyzed by DPP-IV,YES,"N[C@@H](Cc1c[nH]c2ccccc12)C(=O)N1CCC[C@H]1C(=O)N[C@@H](Cc1c[nH]c2ccccc12)C(=O)O [WPW, Trp-Pro-Trp] (H-Trp-Pro-Trp-OH; N-terminus and C-terminus assumed)",
